Organism: Rattus norvegicus
Assay: DrugMatrix - Regimen: Daily Repeat
Assay type: toxicity, organism-based, Sprague-Dawley
Parameters: regimen Daily Repeat, gender Male, age 6-8 weeks
Conditions: in vivo, po, route oral GAVAGE, vehicle 100 % WATER; for ABSOLUTE BASOPHIL / ABSOLUTE EOSINOPHIL / ABSOLUTE LYMPHOCYTE / ABSOLUTE MONOCYTE / ABSOLUTE SEGMENTED NEUTROPHIL / BASOPHIL / EOSINOPHIL / ERYTHROCYTE COUNT / HEMATOCRIT / HEMOGLOBIN / LEUKOCYTE COUNT / LYMPHOCYTE / MEAN CORPUSCULAR HEMOGLOBIN / MEAN CORPUSCULAR HEMOGLOBIN CONCENTRATION / MEAN CORPUSCULAR VOLUME / MONOCYTE / NEUTROPHIL / NUCLEATED RED BLOOD CELLS / PLATELET COUNT: tissue Blood; for ALANINE AMINOTRANSFERASE / ALBUMIN / ALKALINE PHOSPHATASE / ASPARTATE AMINOTRANSFERASE / BLOOD UREA NITROGEN / CARBON DIOXIDE / CHLORIDE / CHOLESTEROL / CREATINE PHOSPHOKINASE / CREATININE / GLUCOSE / LACTATE DEHYDROGENASE / LIPASE / PHOSPHORUS / POTASSIUM / SODIUM / TOTAL BILIRUBIN / TOTAL PROTEIN / URIC ACID: tissue Plasma
[1] = 0.3 mg/kg, 120 h, dose level Low, time 5 day
[2] = 6 mg/kg, 72 h, dose level High, time 3 day
[3] = 6 mg/kg, 120 h, dose level High, time 5 day

Clc1cccc(Cl)c1N=C1NCCN1 [CLONIDINE]
ABSOLUTE BASOPHIL [1]: 0 CELLS/uL | ABSOLUTE EOSINOPHIL [1]: 0 CELLS/uL | ABSOLUTE LYMPHOCYTE [1]: 12125.33 CELLS/uL | ABSOLUTE MONOCYTE [1]: 52.33 CELLS/uL | ABSOLUTE SEGMENTED NEUTROPHIL [1]: 1322.33 CELLS/uL | BASOPHIL [1]: 0% | EOSINOPHIL [1]: 0% | ERYTHROCYTE COUNT [1]: 5.47 x10E6/uL | HEMATOCRIT [1]: 34.07% | HEMOGLOBIN [1]: 13.73 G/DL | LEUKOCYTE COUNT [1]: 13.5 x10E3/uL | LYMPHOCYTE [1]: 89.33% | MEAN CORPUSCULAR HEMOGLOBIN [1]: 25.13 pg | MEAN CORPUSCULAR HEMOGLOBIN CONCENTRATION [1]: 40.3 G/DL | MEAN CORPUSCULAR VOLUME [1]: 62.3 fL | MONOCYTE [1]: 0.33% | NEUTROPHIL [1]: 10.33% | NUCLEATED RED BLOOD CELLS [1]: 0 /100WBC | PLATELET COUNT [1]: 1266.67 x10E3/uL | ALANINE AMINOTRANSFERASE [1]: 49.67 u/L | ALBUMIN [1]: 4.07 G/DL | ALKALINE PHOSPHATASE [1]: 360 u/L | ASPARTATE AMINOTRANSFERASE [1]: 94 u/L | BLOOD UREA NITROGEN [1]: 19 mg/dL | CARBON DIOXIDE [1]: 27 mmol/L | CHLORIDE [1]: 100.67 MEQ/L | CHOLESTEROL [1]: 70 mg/dL | CREATINE PHOSPHOKINASE [1]: 371.67 u/L | CREATININE [1]: 0.17 mg/dL | GLUCOSE [1]: 134.33 mg/dL | LACTATE DEHYDROGENASE [1]: 289.33 u/L | LIPASE [1]: 9 u/L | PHOSPHORUS [1]: 11.17 mg/dL | POTASSIUM [1]: 6.28 MEQ/L | SODIUM [1]: 140.53 MEQ/L | TOTAL BILIRUBIN [1]: 0.1 mg/dL | TOTAL PROTEIN [1]: 5.57 G/DL | URIC ACID [1]: 1.57 mg/dL | ABSOLUTE BASOPHIL [2]: 0 CELLS/uL | ABSOLUTE EOSINOPHIL [2]: 0 CELLS/uL | ABSOLUTE LYMPHOCYTE [2]: 11339 CELLS/uL | ABSOLUTE MONOCYTE [2]: 767 CELLS/uL | ABSOLUTE SEGMENTED NEUTROPHIL [2]: 6827.33 CELLS/uL | BASOPHIL [2]: 0% | EOSINOPHIL [2]: 0% | ERYTHROCYTE COUNT [2]: 6.6 x10E6/uL | HEMATOCRIT [2]: 40.63% | HEMOGLOBIN [2]: 16.17 G/DL | LEUKOCYTE COUNT [2]: 18.93 x10E3/uL | LYMPHOCYTE [2]: 61.33% | MEAN CORPUSCULAR HEMOGLOBIN [2]: 24.47 pg | MEAN CORPUSCULAR HEMOGLOBIN CONCENTRATION [2]: 39.8 G/DL | MEAN CORPUSCULAR VOLUME [2]: 61.5 fL | MONOCYTE [2]: 4% | NEUTROPHIL [2]: 34.67% | NUCLEATED RED BLOOD CELLS [2]: 0 /100WBC | PLATELET COUNT [2]: 1516.67 x10E3/uL | ALANINE AMINOTRANSFERASE [2]: 61 u/L | ALBUMIN [2]: 3.93 G/DL | ALKALINE PHOSPHATASE [2]: 306.67 u/L | ASPARTATE AMINOTRANSFERASE [2]: 172.33 u/L | BLOOD UREA NITROGEN [2]: 58 mg/dL | CARBON DIOXIDE [2]: 23.33 mmol/L | CHLORIDE [2]: 96 MEQ/L | CHOLESTEROL [2]: 67.33 mg/dL | CREATINE PHOSPHOKINASE [2]: 987.33 u/L | CREATININE [2]: 0.52 mg/dL | GLUCOSE [2]: 154.33 mg/dL | LACTATE DEHYDROGENASE [2]: 310.33 u/L | LIPASE [2]: 8 u/L | PHOSPHORUS [2]: 12.97 mg/dL | POTASSIUM [2]: 6.5 MEQ/L | SODIUM [2]: 140.77 MEQ/L | TOTAL BILIRUBIN [2]: 0.27 mg/dL | TOTAL PROTEIN [2]: 6.13 G/DL | URIC ACID [2]: 2.17 mg/dL | ABSOLUTE BASOPHIL [3]: 0 CELLS/uL | ABSOLUTE EOSINOPHIL [3]: 46 CELLS/uL | ABSOLUTE LYMPHOCYTE [3]: 9488.67 CELLS/uL | ABSOLUTE MONOCYTE [3]: 118.67 CELLS/uL | ABSOLUTE SEGMENTED NEUTROPHIL [3]: 2180 CELLS/uL | BASOPHIL [3]: 0% | EOSINOPHIL [3]: 0.33% | ERYTHROCYTE COUNT [3]: 6.57 x10E6/uL | HEMATOCRIT [3]: 38.83% | HEMOGLOBIN [3]: 15.23 G/DL | LEUKOCYTE COUNT [3]: 11.83 x10E3/uL | LYMPHOCYTE [3]: 81.33% | MEAN CORPUSCULAR HEMOGLOBIN [3]: 23.2 pg | MEAN CORPUSCULAR HEMOGLOBIN CONCENTRATION [3]: 39.23 G/DL | MEAN CORPUSCULAR VOLUME [3]: 59.1 fL | MONOCYTE [3]: 1% | NEUTROPHIL [3]: 17.33% | NUCLEATED RED BLOOD CELLS [3]: 0 /100WBC | PLATELET COUNT [3]: 916 x10E3/uL | ALANINE AMINOTRANSFERASE [3]: 33.67 u/L | ALBUMIN [3]: 4.07 G/DL | ALKALINE PHOSPHATASE [3]: 207 u/L | ASPARTATE AMINOTRANSFERASE [3]: 74 u/L | BLOOD UREA NITROGEN [3]: 20.67 mg/dL | CARBON DIOXIDE [3]: 30.67 mmol/L | CHLORIDE [3]: 104 MEQ/L | CHOLESTEROL [3]: 62.67 mg/dL | CREATINE PHOSPHOKINASE [3]: 177 u/L | CREATININE [3]: 0.25 mg/dL | GLUCOSE [3]: 163 mg/dL | LACTATE DEHYDROGENASE [3]: 128 u/L | LIPASE [3]: 9 u/L | PHOSPHORUS [3]: 8.13 mg/dL | POTASSIUM [3]: 5.61 MEQ/L | SODIUM [3]: 148.9 MEQ/L | TOTAL BILIRUBIN [3]: 0.2 mg/dL | TOTAL PROTEIN [3]: 5.9 G/DL | URIC ACID [3]: 0.7 mg/dL
